According to US20240207258A1, “HETEROCYCLIC PDK1 INHIBITORS FOR USE TO TREAT CANCER” (Viracta Therapeutics, Inc., priority 2015, published 2024):

Assays:
pRSK2 = test: Western blot, RSK2 phosphorylation in KG-1 cells; format: cell-based; settings: Homo sapiens; KG-1, 100 nM; read-out: inhibition of pRSK2 levels
Description: (§1) For phosphoprotein analyses, cells were seeded into 10 cm petri dishes (10×10^6 cells/dish) in media supplemented with 10% FBS and penicillin/streptomycin. After cells recovered for 1 hr at 37° C., compounds were added in DMSO (0.1% final) and incubated for 4 or 24 hr at 37° C. Cells were then harvested by centrifugation and washed with cold PBS. Cell pellets were resuspended in cell extraction buffer (Invitrogen) supplemented with 2×Halt™ protease and phosphatase inhibitor cocktail (Thermo Scientific), 2 mM sodium orthovanadate, 10 mM EDTA and 4 mM PMSF. Samples were lysed by sonication and incubated on ice for 30 min. Cell debris was removed by centrifugation and protein concentrations were determined using the BCA Protein Assay Kit (Pierce). The clarified lysate was diluted in LDS sample buffer with reducing agent (Life Technologies). After heating to 70° C. samples were cooled and loaded onto 4-12% Bis-Tris gels (Life Technologies) at 50 μg/well. Gels were run at 110 V and proteins were transferred to a PVDF membrane. Membranes were blocked in TBS blocking buffer (Li-Cor Biosciences) for 1 hr. Primary antibodies (Cell Signaling, Sant Cruz Biotechnology) were added (1:1,000 dilution) in blocking buffer with 0.1% Tween-20 and 1:20,000 dilution of β-actin antibody and incubated for 14 hr at 4° C. […] Bands were quantitated using ImageJ.

pPDK1 = test: Western blot, PDK1 phosphorylation in KG-1 cells; format: cell-based; settings: Homo sapiens; KG-1, 100 nM; read-out: inhibition of pPDK1 levels
Description: as §1

P-AKT = test: Western blot, AKT phosphorylation in A20 cells; format: cell-based, murine
Description: (§2) For phosphoprotein analyses, cells were seeded into 10 cm petri dishes (10×10^6 cells/dish) in media supplemented with 10% FBS and penicillin/streptomycin. After cells recovered for 1 hr at 37° C., compounds were added in DMSO (0.1% final) and incubated for 4 or 24 hr at 37° C. Cells were then harvested by centrifugation and washed with cold PBS. Cell pellets were resuspended in cell extraction buffer (Invitrogen) supplemented with 2×Halt™ protease and phosphatase inhibitor cocktail (Thermo Scientific), 2 mM sodium orthovanadate, 10 mM EDTA and 4 mM PMSF. Samples were lysed by sonication and incubated on ice for 30 min. Cell debris was removed by centrifugation and protein concentrations were determined using the BCA Protein Assay Kit (Pierce). The clarified lysate was diluted in LDS sample buffer with reducing agent (Life Technologies). […] Gels were run at 110 V and proteins were transferred to a PVDF membrane. Membranes were blocked in TBS blocking buffer (Li-Cor Biosciences) for 1 hr. Primary antibodies (Cell Signaling, Sant Cruz Biotechnology) were added (1:1,000 dilution) in blocking buffer with 0.1% Tween-20 and 1:20,000 dilution of β-actin antibody and incubated for 14 hr at 4° C. Blots were washed in TBS-T. Label-conjugated goat anti-rabbit secondary antibody (IRdye® 800CW; Li-Cor Biosciences) was added in blocking buffer with 0.1% Tween-20 and 0.02% SDS and incubated for 1 hr. After washing in TBS-T followed by TBS, membranes were scanned on an Odyssey imaging system (Li-Cor Biosciences). Bands were quantitated using ImageJ.

P-RSK2 [1] = test: Western blot, RSK2 phosphorylation in A20 cells; format: cell-based, murine; settings: Mus musculus; A20, 300 nM
Description: as §1

P-PDK1 [2] = test: Western blot, PDK1 phosphorylation in A20 cells; format: cell-based, murine
Description: as §1, with “After heating to 70° C. samples were cooled and loaded onto 4-12% Bis-Tris gels (Life Technologies) at 50 μg/well.” left out

[3] = test system: PDK1 and RSK2 phosphorylation; test: Western blot pathway modulation, summary over cell lines; format: cell-based
Description: as §1, with “After heating to 70° C. samples were cooled and loaded onto 4-12% Bis-Tris gels (Life Technologies) at 50 μg/well.” left out

P-PDK1 [4] = test: Western blot, PDK1 phosphorylation in MV4-11 cells; format: cell-based, human
Description: as §2

P-RSK2 [5] = test: Western blot, RSK2 phosphorylation in C1498 cells; format: cell-based, murine; settings: C1498, 30-100 nM range
Description: as §1, with “After heating to 70° C. samples were cooled and loaded onto 4-12% Bis-Tris gels (Life Technologies) at 50 μg/well.” left out

P-RSK2 [6] = test: Western blot, RSK2 phosphorylation in MV4-11 cells; format: cell-based, human
Description: as §2

P-PDK1 [7] = test: Western blot, PDK1 phosphorylation in C1498 cells; format: cell-based, murine; settings: C1498, 30-100 nM range
Description: as §1, with “After heating to 70° C. samples were cooled and loaded onto 4-12% Bis-Tris gels (Life Technologies) at 50 μg/well.” left out

MV4-11 cells = test: Induction of apoptosis (Annexin V / propidium iodide flow cytometry); format: cell-based, human
Description: Cells were seeded in a six-well tissue culture plate in 3 mL complete growth medium (3×10^5 cells/well) and allowed to equilibrate for 1 hr at 37° C. in a humidified incubator with 5% CO2. DMSO (control), test compound, or doxorubicin was added to the wells (0.1% final DMSO concentration). Cells were returned to the incubator for 24 hrs. On the day of analysis 1×10^5 cells were labeled according to manufacturer's instructions and analyzed by flow cytometry (BD FACSCaalibur™, GH) to determine the percent of apoptotic cells (annexin V positive, AV+) and/or apoptotic dead cells (AV+ and propidium iodide positive (PI+)).

[8] = Homo sapiens, MV4-11, FIG. 6C, 30 nM, 4 hrs

| Compound | inhibition at 0.1 µM (pRSK2) | inhibition at 0.1 µM (pPDK1) | P-AKT levels (P-AKT) | inhibition at 0.3 µM (P-RSK2 [1]) | P-PDK inhibition plateau (P-PDK1 [2]) | fold more inhibition of PDK1 phosphorylation after 24 hours than 4 hours [3] | fold more potent than GSK-2334470 in inhibiting phosphorylation of both PDK1 and RSK2 ([3]; MV4-11, FIG. 6) | inhibition at 0.03 µM (P-PDK1 [4]; [8]) | inhibition at 0.1 µM (P-PDK1 [4]; Homo sapiens, MV4-11, 100 nM) | fold decrease in PDK1 phosphorylation between 4 hr and 24 hr exposure (P-PDK1 [4]; MV4-11, 30 nM) | P-RSK2 inhibition (P-RSK2 [5]) | inhibition at 0.03 µM (P-RSK2 [6]; [8]) | inhibition at 0.1 µM (P-RSK2 [6]; Homo sapiens, MV4-11, 100 nM) | inhibition of RSK2 phosphorylation (P-RSK2 [6]; MV4-11, 30 nM, various times) | P-PDK1 inhibition (P-PDK1 [7]) | apoptosis at 100 nM (MV4-11 cells; 100 nM) | apoptosis after 24 hours (MV4-11 cells; 24 hours) |
| --- | --- | --- | --- | --- | --- | --- | --- | --- | --- | --- | --- | --- | --- | --- | --- | --- | --- |
| C[C@H](NC(=O)c1nc(C#N)cnc1NCc1ccc(-c2cnc3[nH]nc(N)c3n2)cc1)c1ccc(F)c(F)c1 [Compound 1, 3-[4-(3-Amino-1H-pyrazolo[3,4-b]pyrazin-5-yl)-benzylamino]-6-cyano-pyrazine-2-carboxylic acid [1-(3,4-difluoro-phenyl)-ethyl]-amide] | > 80% | > 80% | – | – | – | – | – | – | – | – | – | – | – | – | – | – | – |
| CNc1n[nH]c2ncc(-c3ccc(CNc4ncc(C#N)nc4C(=O)N[C@@H](C)c4ccc(F)c(F)c4)cc3)cc12 [Compound 2, 6-Cyano-3-[4-(3-methylamino-1H-pyrazolo[3,4-b]pyridin-5-yl)-benzylamino]-pyrazine-2-carboxylic acid [1-(3,4-difluoro-phenyl)-ethyl]-amide] | – | – | sensitive | > 90% | 70% | 2-5 fold | 10 fold | 40% | 90% | 5 fold | > 90% | 90% | > 95% | potent and time-independent | ~80% | induces apoptosis | substantial apoptosis |
